# Results reported in patent publication US11612604B2, “Methods of treating cancer with PLK4 inhibitors” (LUDWIG INSTITUTE FOR CANCER RESEARCH LTD, priority 2017, dated 2023).
# Target: T1, PLK4 (Homo sapiens, UniProt O00444)
# T1 sequence (O00444 1-970): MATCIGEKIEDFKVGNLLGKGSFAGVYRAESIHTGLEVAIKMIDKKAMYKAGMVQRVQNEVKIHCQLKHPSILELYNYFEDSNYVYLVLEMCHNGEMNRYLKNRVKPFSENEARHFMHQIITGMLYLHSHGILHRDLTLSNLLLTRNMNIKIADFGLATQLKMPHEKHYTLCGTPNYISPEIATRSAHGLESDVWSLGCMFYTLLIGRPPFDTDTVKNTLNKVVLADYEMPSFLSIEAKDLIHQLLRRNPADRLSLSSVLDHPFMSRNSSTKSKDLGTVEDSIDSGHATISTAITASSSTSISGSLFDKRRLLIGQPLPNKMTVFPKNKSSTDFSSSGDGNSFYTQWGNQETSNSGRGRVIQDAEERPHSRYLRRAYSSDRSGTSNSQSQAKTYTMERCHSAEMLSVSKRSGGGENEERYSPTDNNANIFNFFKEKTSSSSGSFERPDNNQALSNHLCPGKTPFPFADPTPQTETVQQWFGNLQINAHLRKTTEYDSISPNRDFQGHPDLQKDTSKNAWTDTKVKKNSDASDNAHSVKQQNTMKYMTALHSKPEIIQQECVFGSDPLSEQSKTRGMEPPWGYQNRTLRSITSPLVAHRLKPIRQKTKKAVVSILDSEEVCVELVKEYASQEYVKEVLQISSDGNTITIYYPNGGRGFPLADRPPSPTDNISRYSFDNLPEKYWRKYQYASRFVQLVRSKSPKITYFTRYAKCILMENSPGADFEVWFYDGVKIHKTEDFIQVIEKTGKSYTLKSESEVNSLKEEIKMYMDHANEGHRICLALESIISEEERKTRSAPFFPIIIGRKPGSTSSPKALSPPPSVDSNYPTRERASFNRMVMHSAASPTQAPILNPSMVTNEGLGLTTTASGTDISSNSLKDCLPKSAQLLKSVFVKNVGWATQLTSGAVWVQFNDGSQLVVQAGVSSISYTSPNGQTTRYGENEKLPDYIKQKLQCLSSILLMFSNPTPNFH
# Assay: Activity (IC50) of the Table 1 compounds as PLK4 inhibitors
# Format: biochemical
# Details: Table 1, IC50 class
row,SMILES,IC50 [nM]
1,COc1c(Nc2cc(C)[nH]n2)nc(Sc2ccc(NC(=O)C3CC3)cc2)nc1N1CCN(C)CC1,< 100
2,Cc1cc(Nc2nc(Sc3ccc(NC(=O)C4CC4)cc3)nc(N3CCOCC3)c2C)n[nH]1,< 100
3,COc1c(C)nc(Sc2ccc(NC(=O)C3CC3)cc2)nc1Nc1cc(C)[nH]n1,< 100
4,Cc1cc(Nc2nc(Sc3ccc(NC(=O)C4CC4)cc3)nc3c2C(C)CC3)n[nH]1 (stereo not drawn),< 100
5,COCCNc1nc(Sc2ccc(NC(=O)C3CCCC3)cc2)nc(Nc2cc(C)[nH]n2)c1OC,< 100
6,COc1c(Nc2cc(C)[nH]n2)nc(Sc2ccc(NC(=O)C3CCCC3)cc2)nc1N1CCN(C(C)=O)CC1,< 100
7,COCCN1CCN(c2nc(Sc3ccc(NC(=O)C4CCCC4)cc3)nc(Nc3cc(C)[nH]n3)c2OC)CC1,< 100
8,CCOc1c(Nc2cc(C)[nH]n2)nc(Sc2ccc(NC(=O)C3CC3)cc2)nc1N1CCOCC1,< 100
9,COc1c(Nc2cc(C)[nH]n2)nc(Sc2ccc(NC(=O)C3CCCC3)cc2)nc1N1CCN(C)CC1,< 100
10,COc1c(Nc2cc(C)[nH]n2)nc(Sc2ccc(NC(=O)C3CCCC3)cc2)nc1N1CCNCC1,< 100
11,COc1c(Nc2cc(C)[nH]n2)nc(Sc2ccc(NC(=O)C3CCCC3)cc2)nc1N1CCN(CCN(C)C)CC1,< 100
12,CCOc1c(Nc2cc(C)[nH]n2)nc(Sc2ccc(NC(=O)C3CC3)cc2)nc1N1CCNCC1,< 100
13,CCOc1c(Nc2cc(C)[nH]n2)nc(Sc2ccc(NC(=O)C3CC3)cc2)nc1N(CC)CC,< 100
14,CCOc1c(Nc2cc(C)[nH]n2)nc(Sc2ccc(NC(=O)C3CC3)cc2)nc1N(C)CC,< 100
15,CCOc1c(Nc2cc(C)[nH]n2)nc(Sc2ccc(NC(=O)C3CC3)cc2)nc1N(C)C,< 100
16,COc1c(Nc2cc(C)[nH]n2)nc(Sc2ccc(NC(=O)C3CC3)cc2)nc1N1CCN(C2CCN(C)CC2)CC1,< 100
17,COc1c(Nc2cc(C)[nH]n2)nc(Sc2ccc(NC(=O)C3CC3)cc2)nc1N1CCC(C(=O)CN(C)C)CC1,< 100
18,COc1c(Nc2cc(C)[nH]n2)nc(Sc2ccc(NC(=O)C3CC3)cc2)nc1N1CCN(C(=O)CCN(C)C)CC1,< 100
19,COCC(=O)N1CCN(c2nc(Sc3ccc(NC(=O)C4CC4)cc3)nc(Nc3cc(C)[nH]n3)c2OC)CC1,< 100
20,COCCC(=O)N1CCN(c2nc(Sc3ccc(NC(=O)C4CC4)cc3)nc(Nc3cc(C)[nH]n3)c2OC)CC1,< 100
21,COc1c(Nc2cc(C)[nH]n2)nc(Sc2ccc(NC(=O)C3CC3)cc2)nc1N1CCN(CC2CC2)CC1,< 100
22,CNCCN1CCN(c2nc(Sc3ccc(NC(=O)C4CC4)cc3)nc(Nc3cc(C)[nH]n3)c2OC)CC1,< 100
23,CCC1CCc2nc(Sc3ccc(NC(=O)C4CC4)cc3)nc(Nc3cc(C)[nH]n3)c21 (stereo not drawn),< 100

row,SMILES,IC50 [nM]
1,Cc1cc(Nc2nc(Sc3ccc(NC(=O)C4CCC4)cc3)nc(N3CCN(C)CC3)c2C)n[nH]1,< 100
2,CC(=O)Nc1ccc(Sc2nc(Nc3cc(C)[nH]n3)c(C)c(N3CCN(C)CC3)n2)cc1,< 100
3,CCOc1c(Nc2c[nH]c(C)c2)nc(Sc2ccc(NC(=O)C3CCCC3)cc2)nc1N1CCN(C(=O)CCOC)CC1,100 to 1000
4,CC(=O)Nc1ccc(Sc2nc(Nc3cc(C)[nH]n3)c(C)c(N3CCN(CCN(C)C)CC3)n2)cc1,< 100
5,CCS(=O)(=O)c1ccc(Sc2nc(Nc3cc(C)[nH]n3)c(OC)c(C3CCN(CCN(C)C)CC3)n2)cc1,< 100
6,COc1c(Nc2cc(C)[nH]n2)nc(Sc2ccc(S(=O)(=O)Cc3ccccc3)cc2)nc1C1CCN(CCN(C)C)CC1,< 100
7,CCS(=O)(=O)c1ccc(Sc2nc(Nc3cc(C)[nH]n3)c(OC)c(N3CCC(CCN4C5CCCC4CCC5)CC3)n2)cc1,< 100
8,COc1c(Nc2cc(C)[nH]n2)nc(Sc2ccc(S(=O)(=O)Cc3ncc[nH]3)cc2)nc1N1CCN(CCN(C)C)CC1,< 100
9,CCS(=O)(=O)c1ccc(Sc2nc(C)c(OC)c(Nc3cc(C)[nH]n3)n2)cc1,< 100
10,COc1c(C)nc(Sc2ccc(S(=O)(=O)Cc3ccccc3)cc2)nc1Nc1cc(C)[nH]n1,< 100
11,COc1c(Nc2cc(C)[nH]n2)nc(Sc2ccc(S(=O)(=O)CCN(C)C)cc2)nc1N1CCN(CCN(C)C)CC1,< 100
12,COc1c(Nc2cc(C)[nH]n2)nc(Sc2ccc(S(=O)(=O)c3ccccc3)cc2)nc1N1CCN(CCN(C)C)CC1,< 100
13,COc1c(Nc2cc(C)[nH]n2)nc(Sc2ccc(S(=O)(=O)Cc3ncco3)cc2)nc1N1CCN(CCN(C)C)CC1,< 100
14,CCOc1c(Nc2cc(C)[nH]n2)nc(Sc2ccc(S(=O)(=O)CC)cc2)nc1N1CCN(CCN(C)C)CC1,< 100
15,CCOc1c(Nc2cc(C)[nH]n2)nc(Sc2ccc(S(=O)(=O)Cc3ccccc3)cc2)nc1N1CCN(CCN(C)C)CC1,< 100
16,COc1c(Nc2cc(C)[nH]n2)nc(Sc2ccc(S(=O)(=O)Cc3ccccc3)cc2)nc1N1CCOCC1,< 100
17,COc1c(Nc2cc(C)[nH]n2)nc(Sc2ccc(S(=O)(=O)Cc3ccccc3)cc2)nc1N(C)C,< 100
18,COc1c(Nc2cc(C)[nH]n2)nc(Sc2ccc(S(=O)(=O)Cc3ccccc3)cc2)nc1N1CCCCC1,< 100
19,COc1c(Nc2cc(C)[nH]n2)nc(Sc2ccc(S(=O)(=O)Cc3ccccc3)cc2)nc1N1CCN(CCN2CCN(C)CC2)CC1,< 100
20,COc1c(Nc2cc(C)[nH]n2)nc(Sc2ccc(S(=O)(=O)Cc3ccccc3)cc2)nc1N1CCN(CCN2C3CCCC2CC3)CC1,< 100
21,Cc1cc(Nc2nc(Sc3ccc(S(=O)(=O)Cc4ccccc4)cc3)nc(N3CCN(CCN(C)C)CC3)c2C)n[nH]1,< 100
22,Cc1cc(Nc2cc(N3CCN(CCN(C)C)CC3)nc(Sc3ccc(S(=O)(=O)Cc4ccccc4)cc3)n2)n[nH]1,< 100
23,COc1c(Nc2cc[nH]n2)nc(Sc2ccc(S(=O)(=O)Cc3ccccc3)cc2)nc1N1CCN(CCN(C)C)CC1,< 100

row,SMILES,IC50 [nM]
1,CCS(=O)(=O)c1ccc(Sc2nc(Nc3cc(C)[nH]n3)c(OC)c(N3CCCCC3)n2)cc1,< 100
2,CCS(=O)(=O)c1ccc(Sc2nc(Nc3cc(C)[nH]n3)c(OC)c(N3CCOCC3)n2)cc1,< 100
3,COc1c(Nc2cc(C)[nH]n2)nc(Sc2ccc(S(=O)(=O)Cc3cccc([N+](=O)[O-])c3)cc2)nc1N1CCN(CCN(C)C)CC1,< 100
4,COc1c(Nc2cc(C)[nH]n2)nc(Sc2ccc(S(=O)(=O)Cc3ccc([N+](=O)[O-])cc3)cc2)nc1N1CCN(CCN(C)C)CC1,< 100
5,CCN(CC)c1nc(Sc2ccc(S(=O)(=O)Cc3ccccc3)cc2)nc(Nc2cc(C)[nH]n2)c1OC,< 100
6,CCN(CC)c1nc(Sc2ccc(S(=O)(=O)CC)cc2)nc(Nc2cc(C)[nH]n2)c1OC,< 100
7,CCOc1c(Nc2cc(C)[nH]n2)nc(Sc2ccc(S(=O)(=O)Cc3ccccc3)cc2)nc1N1CCNCC1,< 100
8,CCOc1c(Nc2cc(C)[nH]n2)nc(Sc2ccc(S(=O)(=O)CC)cc2)nc1N1CCNCC1,< 100
9,COc1c(Nc2cc(C)[nH]n2)nc(Sc2ccc(S(=O)(=O)Cc3ccc(F)cc3F)cc2)nc1N1CCN(CCN(C)C)CC1,< 100
10,COc1c(Nc2cc(C)[nH]n2)nc(Sc2ccc(S(=O)(=O)Cc3ccccc3F)cc2)nc1N1CCN(CCN(C)C)CC1,< 100
11,COc1c(Nc2cc(C)[nH]n2)nc(Sc2ccc(S(=O)(=O)Cc3ccccc3)cc2)nc1N1CCN(CCN(C)c2ccccc2)CC1,< 100
12,CCCOc1c(Nc2cc(C)[nH]n2)nc(Sc2ccc(S(=O)(=O)Cc3ccccc3)cc2)nc1N1CCN(CCN(C)C)CC1,< 100
13,Cc1cc(Nc2nc(Sc3ccc(S(=O)(=O)Cc4ccccc4)cc3)nc(N3CCN(CCN(C)C)CC3)c2OC(C)C)n[nH]1,< 100
14,COc1c(Nc2cc(C)[nH]n2)nc(Sc2ccc(S(=O)(=O)Cc3cccc(O)c3)cc2)nc1N1CCN(CCN(C)C)CC1,< 100
15,COc1c(Nc2cc(C)[nH]n2)nc(Sc2ccc(S(=O)(=O)Cc3cccc(OCc4ccccc4)c3)cc2)nc1N1CCN(CCN(C)C)CC1,< 100
16,CCOc1c(Nc2cc(C)[nH]n2)nc(Sc2ccc(S(=O)(=O)Cc3ccccc3)cc2)nc1N1CCN(CCN2C3CCCC2CC3)CC1,< 100
17,CCOc1c(Nc2cc(C)[nH]n2)nc(Sc2ccc(S(=O)(=O)CC)cc2)nc1N1CCC(CCN(C)C)CC1,< 100
18,COc1c(Nc2cc(C)[nH]n2)nc(Sc2ccc(S(=O)(=O)Cc3cc(F)ccc3F)cc2)nc1N1CCN(CCN(C)C)CC1,< 100
19,COc1c(Nc2cc(C)[nH]n2)nc(Sc2ccc(S(=O)(=O)Cc3cccc(-c4ccccc4)c3)cc2)nc1N1CCN(CCN(C)C)CC1,< 100
20,COc1c(Nc2cc(C)[nH]n2)nc(Sc2ccc(S(=O)(=O)Cc3cccc(C(C)=O)c3)cc2)nc1N1CCN(CCN(C)C)CC1,< 100
21,COc1c(Nc2cc(C)[nH]n2)nc(Sc2ccc(S(=O)(=O)Cc3cccc([N+](=O)[O-])c3)cc2)nc1N1CCOCC1,< 100
22,COc1c(Nc2cc(C)[nH]n2)nc(Sc2ccc(S(=O)(=O)Cc3ccccc3)cc2)nc1N1CCN(Cc2ccccc2)CC1,< 100
23,COc1c(Nc2cc(C)[nH]n2)nc(Sc2ccc(S(=O)(=O)Cc3ccccc3)cc2F)nc1N1CCN(CCN(C)C)CC1,< 100
